Experimental findings from patent US10208056B2, “Condensed tricyclic compounds as protein kinase inhibitors” (FUNDACIÓN DEL SECTOR PÚBLICO ESTATAL CENTRO NACIONAL DE …, priority 2015, dated 2019) are described below.

For test [1], the system named is SW620. In words: In vitro cell proliferation assay (CellTiter-Glo), SW620. The following applies: growth inhibition, semiquantitative, read-out: GI50 SW620. It is filed as cell-based, human. On the technique in general: In ATP-based viability assays light output follows the ATP content of the culture.
Another test deals with Molm13. Description: In vitro cell proliferation assay (CellTiter-Glo), Molm13. It is filed as cell-based. Conditions: growth inhibition, semiquantitative, read-out: GI50 Molm13.
The target in a further test is CDK19/Cyclin C (Homo sapiens (Human), UniProt Q9BWU1). In words: CDK19/Cyclin C binding assay (LanthaScreen Eu-Kinase Binding Assay). Conditions: read-out: CDK19-CYCC IC50. Put shortly:
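LanthaScreen TR-FRET tracer-displacement format with 2 nM Cdk19-Cyclin C, 20 nM tracer and 2 nM Eu-anti-GST antibody. The buffer was 50 mM HEPES pH 7.5, 10 mM MgCl2, 1 mM EGTA, 0.01% Brij-35, with 1% DMSO final. Compounds were tested as 1:3 serial dilutions and incubated for 60 min at 25 °C.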
(In TR-FRET formats the signal depends on donor and acceptor labels being close together.)

The next test deals with CDK8/Cyclin C (Homo sapiens (Human), UniProt P49336). Description: CDK8/Cyclin C binding assay (LanthaScreen Eu-Kinase Binding Assay). Conditions: binding assay. The procedure:
The enzyme has been purchase from Invitrogen (PV4402) as a dimer of full-length His-tagged recombinant human proteins.
Assays were performed in 384-well plates. The final read out was generated using an EnVision plate reader (Perkin-Elmer).

Another test deals with MV4:11. In words: In vitro cell proliferation assay (CellTiter-Glo), MV4:11. It is filed as cell-based. Conditions: growth inhibition, semiquantitative, read-out: GI50 MV4:11.
Another test concerns the target intracellular CDK8 (Homo sapiens (Human), UniProt P49336). In words: Endogenous phosphoSTAT1 inhibition in SW620 cells growing in 10% FBS. It is filed as cell-based. Conditions: semiquantitative, read-out: SW620 P-STAT1(S727). The procedure: Endogenous phosphoSTAT1 inhibition can be screened in cells growing in 10% FBS. Cells are plated as described before and treated for 8 h with compounds as described before. Then cells are lysated and phospho STAT1 is evaluated as described before. The percentage of phosphorylated STAT1 vs total STAT1 in cells treated with DMSO is taken as hundred percent of phosphorylation. The percentage of STAT1 phosphorylation is finally plotted against concentration for each compound and EC50s for intracellular CDK8 inhibition are calculated using ActivityBase from IDBS.

The next test deals with MDA-MB-231. In words: In vitro cell proliferation assay (CellTiter-Glo), MDA-MB-231. The following applies: growth inhibition, semiquantitative, read-out: GI50 MDA-MB-231. It is filed as cell-based.
Test [2] concerns the target T1, intracellular HASPIN (Homo sapiens (Human), UniProt Q8TF76). In words: Endogenous phosphoH3 inhibition in SW620 cells growing in 10% FBS. It is filed as cell-based. The following applies: semiquantitative, read-out: SW620 pH3(T3). The procedure:
Endogenous phosphoH3 inhibition can be screened in cells growing in 10% FBS. Cells are plated as described before and treated for 8 h with compounds as described before. Then cells are lysated and phospho H3 evaluated as described before. The percentage of phosphorylated H3 vs total H3 in cells treated with DMSO is taken as hundred percent of phosphorylation. The percentage of H3 phosphorylation is finally plotted against concentration for each compound and EC50s for intracellular HASPIN inhibition are calculated using ActivityBase from IDBS.

Another test addresses Haspin kinase (Homo sapiens (Human), UniProt Q8TF76). Description: Haspin kinase assay (ADP-Glo). It is filed as biochemical. The following applies: ATP 150 μM. Put shortly: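 Compounds in 1:3 serial dilutions (1% DMSO final) were incubated 60 min at 30 °C with 20 nM recombinant GST-Haspin kinase domain and 150 μM ATP, without substrate, in pH 7.4 HEPES/MgCl2 buffer. ADP formed was read by luciferase luminescence and normalized to uninhibited enzyme to give % inhibition.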

For another test, the system named is DU145. Description: Combination assay, DU145. It is filed as cell-based. The following applies: Homo sapiens, DU-145; DU145, chemotherapeutic alone; read-out: Chemo GI50. How it is done:
(§1) The combination index (CI) of combinations of certain example compounds and various chemotherapeutic agents in the CellTitetI-Glo® in vitro cell proliferation assays may be tested. A combination index score is calculated by the Chou and Talalay method (CalcuSyn software, Biosoft). The strength of synergy is scored using the ranking system Chou and Talalay: CI less than 0.8 indicates synergy, CI between 0.8 and 1.2 indicates additivity and CI greater than 1.2 indicates antagonism.
The EC50 values of representative combinations are also calculated. The individually measured EC50 values of the chemotherapeutic agent and the example compounds are compared to the EC50 value of the combination. The cell lines are characterised by tumor type. […] Blanco-Aparicio, Carmen; Collazo, Ana Maria Garcia; Oyarzabal, Julen; Leal, Juan F.; Albaran, Maria Isabel; Lima, Francisco Ramos; Pequeno, Belen; Ajenjo, Nuria; Becerra, Mercedes; Alfonso, Patricia; Reymundo, Maria Isabel; Palacios, Irene; Mateos, Genoveva; Quinones, Helena; Corrionero, Ana; Carnero, Amancio; Pevarello, Paolo; Lopez, Ana Rodriguez; Fominaya, Jesus; Pastor, Joaquin; Bischoff, James R. Cancer Letters (Shannon, Ireland) 2011, 300(2), 145-153

The next test relates to HCT116. In words: Combination assay, HCT116. The following applies: Homo sapiens, HCT-116; HCT116, chemotherapeutic alone; read-out: Chemo GI50. It is filed as cell-based. The procedure: as §1
(§2) The EC50 values of representative combinations are also calculated. The individually measured EC50 values of the chemotherapeutic agent and the example compounds are compared to the EC50 value of the combination. The cell lines are characterised by tumor type. Combination assays are performed as described in: “Pim 1 kinase inhibitor ETP-45299 suppresses cellular proliferation and synergizes with PI3K inhibition”. Blanco-Aparicio, Carmen; Collazo, Ana Maria Garcia; Oyarzabal, Julen; Leal, Juan F.; Albaran, Maria Isabel; Lima, Francisco Ramos; Pequeno, Belen; Ajenjo, Nuria; Becerra, Mercedes; Alfonso, Patricia; Reymundo, Maria Isabel; Palacios, Irene; Mateos, Genoveva; Quinones, Helena; Corrionero, Ana; Carnero, Amancio; Pevarello, Paolo; Lopez, Ana Rodriguez; Fominaya, Jesus; Pastor, Joaquin; Bischoff, James R. Cancer Letters (Shannon, Ireland) 2011, 300(2), 145-153

Another test relates to BXPC-3. In words: Combination assay, BXPC-3. It is filed as cell-based. The following applies: Homo sapiens; BXPC-3, chemotherapeutic alone; read-out: Chemo GI50. How it is done: as §1, §2
Another test concerns SKMEL19. In words: Combination assay, SKMEL19. It is filed as cell-based. The following applies: Homo sapiens, SK-MEL19; SKMEL19, chemotherapeutic alone; read-out: Chemo GI50. How it is done:
as §1, §2

Test [3] concerns SW620. In words: Combination assay, SW620. The following applies: Homo sapiens, SW-620; SW620, chemotherapeutic alone; read-out: Chemo GI50. It is filed as cell-based, human. How it is done:
as §1, §2

For test [4], the target named is T1, intracellular HASPIN. In words: Cellular HASPIN inhibition assay, western blot phospho H3T3 in synchronized SW620 cells. It is filed as cell-based. The following applies: semiquantitative, read-out: SW620 PH3(T3) in synchronized cells. The procedure:
Compounds can be screened for their ability to inhibit intracellular HASPIN using a western blot assay to detect phosphorylation of the HASPIN substrate H3T3 in synchronized cells. SW620 cells are plated at 200000 cells per well in 6-well plates (Solmeglas 13118) in RPMI media (Sigma-Aldrich R6504) supplemented with 10% foetal bovine serum (Sigma-Aldrich F7524), Penicillin/Streptomycin solution diluted 1:100 (Gibco 15070-063), and fungizone (Gibco, 15290-018), and allowed to adhere overnight at 37° C. in 5% CO2. Cells are then treated 16 h hours with Nocadazole (Sigma-Aldrich M1404) at 250 ng/ml to arrest them in mitosis. Proteasoma inhibitor MG132 (Sigma-Aldrich C2211) is added to a final concentration of […] to keep cells arrested in mitosis. Compounds are then added to the cell media from a final concentration of 10 μM in 10-fold serial dilutions and the cells are incubated at 37° C. in 5% CO2. After 1 hour and 30 minutes of treatment with the compounds, the cells are washed in PBS, lysed adding 100 μl of protein lysis buffer (62.5 mM Tris pH 6.8 al 6.25%, 2% SDS y 10% glycerol) incubation 10 minutes at room temperature and heating at 95° C. 10 min. The protein content of the lysates is determined by DC protein assay (Biorad, Ref. 5000116). The proteins are resolved by SDS-PAGE and transferred to nitrocellulose membrane (VWR International eurolab, Ref. 732-4007). The membranes are incubated overnight at 4° C. with antibodies specific for total H3 (Millipore #07424), phosphothreonine-3 H3 (Cell Signaling Ref. 14269) they are washed and then incubated with IRDye800 conjugated anti-mouse (Pierce/Cultek, 35521) and Alexa Fluor 680 goat anti-rabbit IgG secondary antibodies (Invitrogen, A21076). The bands are visualized and quantified using an Odyssey infrared imaging system (Li-Cor Biosciences). The percentage of phosphorylated H3 vs total H3 in synchronized cells is taken as hundred percent of phosphorylation. The percentage of H3 phosphorylation is finally plotted against concentration for each compound and EC50s for intracellular HASPIN inhibition are calculated using ActivityBase from IDBS.
For orientation: Immunoblotting shows a protein as a band on a membrane.

Where two headings read alike, the source gives them in different places. Where only a bound is given, the exact number is not on record here.

Sequence of CDK19/Cyclin C (Q9BWU1 whole entry): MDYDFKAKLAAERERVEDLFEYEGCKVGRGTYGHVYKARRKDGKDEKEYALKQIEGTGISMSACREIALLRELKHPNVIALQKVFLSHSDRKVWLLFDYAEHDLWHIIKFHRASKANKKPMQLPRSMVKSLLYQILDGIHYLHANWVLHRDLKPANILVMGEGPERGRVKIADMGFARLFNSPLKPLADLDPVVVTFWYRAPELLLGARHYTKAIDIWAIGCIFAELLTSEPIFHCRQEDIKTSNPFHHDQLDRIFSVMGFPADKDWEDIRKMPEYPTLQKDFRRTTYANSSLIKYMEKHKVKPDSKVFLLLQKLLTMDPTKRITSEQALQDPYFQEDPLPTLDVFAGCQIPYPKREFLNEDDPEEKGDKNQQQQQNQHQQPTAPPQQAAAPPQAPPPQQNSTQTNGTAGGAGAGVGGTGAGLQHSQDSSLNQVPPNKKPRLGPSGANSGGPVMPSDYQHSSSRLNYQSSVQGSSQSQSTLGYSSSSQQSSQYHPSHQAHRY
Sequence of CDK19/Cyclin C (P24863 whole entry partner): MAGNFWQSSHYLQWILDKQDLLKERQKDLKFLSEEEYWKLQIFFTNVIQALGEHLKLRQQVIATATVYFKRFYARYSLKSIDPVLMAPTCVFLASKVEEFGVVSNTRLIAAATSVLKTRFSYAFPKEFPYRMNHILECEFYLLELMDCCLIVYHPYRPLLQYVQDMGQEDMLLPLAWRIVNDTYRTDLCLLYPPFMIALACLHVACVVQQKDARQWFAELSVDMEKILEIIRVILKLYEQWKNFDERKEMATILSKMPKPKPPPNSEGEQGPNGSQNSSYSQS
Sequence of CDK8/Cyclin C (P49336 whole entry): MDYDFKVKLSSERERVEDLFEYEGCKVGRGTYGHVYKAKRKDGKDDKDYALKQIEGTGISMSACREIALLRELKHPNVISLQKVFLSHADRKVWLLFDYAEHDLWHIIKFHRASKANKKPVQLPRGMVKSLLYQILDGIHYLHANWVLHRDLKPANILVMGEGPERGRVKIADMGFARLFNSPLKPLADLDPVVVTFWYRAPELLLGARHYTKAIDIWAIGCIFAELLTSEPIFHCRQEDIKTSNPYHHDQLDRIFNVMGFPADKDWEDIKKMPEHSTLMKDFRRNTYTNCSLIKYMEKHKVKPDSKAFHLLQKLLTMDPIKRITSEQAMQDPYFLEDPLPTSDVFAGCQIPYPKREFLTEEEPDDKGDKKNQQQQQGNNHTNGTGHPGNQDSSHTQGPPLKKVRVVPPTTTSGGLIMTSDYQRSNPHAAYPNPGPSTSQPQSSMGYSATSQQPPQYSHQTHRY
Sequence of CDK8/Cyclin C (P24863 whole entry partner): as the sequence (P24863 whole entry partner) above
Sequence of intracellular CDK8 (P49336 whole entry): as the sequence (P49336 whole entry) above
Sequence of intracellular CDK8 (P24863 whole entry partner): as the sequence (P24863 whole entry partner) above
Sequence of intracellular CDK8 (Q93074 whole entry partner): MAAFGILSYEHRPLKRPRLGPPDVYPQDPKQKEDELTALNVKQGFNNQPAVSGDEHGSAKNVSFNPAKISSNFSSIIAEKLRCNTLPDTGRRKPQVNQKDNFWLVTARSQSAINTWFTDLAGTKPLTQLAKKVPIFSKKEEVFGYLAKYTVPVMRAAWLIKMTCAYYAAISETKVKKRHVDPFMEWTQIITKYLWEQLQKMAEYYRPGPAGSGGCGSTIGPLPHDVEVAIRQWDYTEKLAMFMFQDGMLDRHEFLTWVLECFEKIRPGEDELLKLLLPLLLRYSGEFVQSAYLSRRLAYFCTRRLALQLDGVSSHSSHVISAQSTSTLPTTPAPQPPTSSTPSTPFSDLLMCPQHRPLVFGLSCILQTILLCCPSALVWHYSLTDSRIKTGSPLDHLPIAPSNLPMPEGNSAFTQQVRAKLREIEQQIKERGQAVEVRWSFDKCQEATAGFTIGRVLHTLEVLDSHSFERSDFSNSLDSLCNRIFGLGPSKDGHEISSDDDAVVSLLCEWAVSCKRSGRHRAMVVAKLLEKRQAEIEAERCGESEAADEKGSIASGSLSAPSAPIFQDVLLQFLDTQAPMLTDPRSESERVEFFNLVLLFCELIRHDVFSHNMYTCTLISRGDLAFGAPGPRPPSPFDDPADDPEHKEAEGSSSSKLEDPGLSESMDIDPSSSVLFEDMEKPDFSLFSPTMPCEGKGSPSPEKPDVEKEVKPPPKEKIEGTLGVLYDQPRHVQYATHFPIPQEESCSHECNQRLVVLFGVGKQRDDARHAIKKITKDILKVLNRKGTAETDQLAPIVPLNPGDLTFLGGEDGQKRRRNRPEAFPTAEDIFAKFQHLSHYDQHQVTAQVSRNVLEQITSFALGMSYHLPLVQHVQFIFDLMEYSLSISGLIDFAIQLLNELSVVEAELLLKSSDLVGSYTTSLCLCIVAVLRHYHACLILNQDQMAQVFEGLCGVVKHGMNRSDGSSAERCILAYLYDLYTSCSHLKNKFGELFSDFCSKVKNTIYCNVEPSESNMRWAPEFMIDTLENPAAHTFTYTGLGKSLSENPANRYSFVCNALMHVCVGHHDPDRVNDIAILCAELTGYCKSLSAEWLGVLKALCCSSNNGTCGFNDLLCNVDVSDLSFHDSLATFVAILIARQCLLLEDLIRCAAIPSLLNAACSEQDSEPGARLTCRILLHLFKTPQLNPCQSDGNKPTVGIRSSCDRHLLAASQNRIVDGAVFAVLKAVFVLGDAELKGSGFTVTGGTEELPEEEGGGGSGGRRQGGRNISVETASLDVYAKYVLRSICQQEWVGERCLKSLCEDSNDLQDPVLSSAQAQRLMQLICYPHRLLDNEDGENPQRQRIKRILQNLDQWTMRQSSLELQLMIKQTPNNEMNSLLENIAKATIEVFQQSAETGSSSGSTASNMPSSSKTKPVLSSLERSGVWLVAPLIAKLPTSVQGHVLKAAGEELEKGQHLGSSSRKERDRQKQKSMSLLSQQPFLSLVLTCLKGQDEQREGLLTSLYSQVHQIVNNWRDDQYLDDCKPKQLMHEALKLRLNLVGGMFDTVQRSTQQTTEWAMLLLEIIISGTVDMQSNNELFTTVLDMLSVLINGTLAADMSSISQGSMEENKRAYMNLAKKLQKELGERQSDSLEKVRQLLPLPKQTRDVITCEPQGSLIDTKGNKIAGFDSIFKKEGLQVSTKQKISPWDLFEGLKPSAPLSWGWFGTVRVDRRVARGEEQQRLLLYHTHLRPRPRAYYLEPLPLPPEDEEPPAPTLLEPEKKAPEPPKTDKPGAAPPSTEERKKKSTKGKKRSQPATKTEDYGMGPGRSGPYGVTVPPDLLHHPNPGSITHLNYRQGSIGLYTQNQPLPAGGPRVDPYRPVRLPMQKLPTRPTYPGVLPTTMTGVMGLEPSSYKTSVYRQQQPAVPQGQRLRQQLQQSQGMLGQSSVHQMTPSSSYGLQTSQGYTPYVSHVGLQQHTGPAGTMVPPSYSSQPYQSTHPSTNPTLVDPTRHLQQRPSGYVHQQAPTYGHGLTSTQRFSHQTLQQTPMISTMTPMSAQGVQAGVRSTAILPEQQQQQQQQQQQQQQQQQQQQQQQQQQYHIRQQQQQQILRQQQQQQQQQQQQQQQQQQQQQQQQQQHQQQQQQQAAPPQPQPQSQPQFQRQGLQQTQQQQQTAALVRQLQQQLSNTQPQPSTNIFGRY
Sequence of Haspin kinase (Q8TF76 484-798): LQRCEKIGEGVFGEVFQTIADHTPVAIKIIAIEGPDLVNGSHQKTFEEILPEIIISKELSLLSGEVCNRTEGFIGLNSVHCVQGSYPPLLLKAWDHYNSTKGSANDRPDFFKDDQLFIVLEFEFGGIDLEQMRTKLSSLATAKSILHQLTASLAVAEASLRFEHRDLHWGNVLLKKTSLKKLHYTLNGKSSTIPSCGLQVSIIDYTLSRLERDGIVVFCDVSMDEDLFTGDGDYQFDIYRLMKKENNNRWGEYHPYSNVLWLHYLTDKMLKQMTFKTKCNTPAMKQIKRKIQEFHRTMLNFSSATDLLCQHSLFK
T1 sequence (Q8TF76 whole entry): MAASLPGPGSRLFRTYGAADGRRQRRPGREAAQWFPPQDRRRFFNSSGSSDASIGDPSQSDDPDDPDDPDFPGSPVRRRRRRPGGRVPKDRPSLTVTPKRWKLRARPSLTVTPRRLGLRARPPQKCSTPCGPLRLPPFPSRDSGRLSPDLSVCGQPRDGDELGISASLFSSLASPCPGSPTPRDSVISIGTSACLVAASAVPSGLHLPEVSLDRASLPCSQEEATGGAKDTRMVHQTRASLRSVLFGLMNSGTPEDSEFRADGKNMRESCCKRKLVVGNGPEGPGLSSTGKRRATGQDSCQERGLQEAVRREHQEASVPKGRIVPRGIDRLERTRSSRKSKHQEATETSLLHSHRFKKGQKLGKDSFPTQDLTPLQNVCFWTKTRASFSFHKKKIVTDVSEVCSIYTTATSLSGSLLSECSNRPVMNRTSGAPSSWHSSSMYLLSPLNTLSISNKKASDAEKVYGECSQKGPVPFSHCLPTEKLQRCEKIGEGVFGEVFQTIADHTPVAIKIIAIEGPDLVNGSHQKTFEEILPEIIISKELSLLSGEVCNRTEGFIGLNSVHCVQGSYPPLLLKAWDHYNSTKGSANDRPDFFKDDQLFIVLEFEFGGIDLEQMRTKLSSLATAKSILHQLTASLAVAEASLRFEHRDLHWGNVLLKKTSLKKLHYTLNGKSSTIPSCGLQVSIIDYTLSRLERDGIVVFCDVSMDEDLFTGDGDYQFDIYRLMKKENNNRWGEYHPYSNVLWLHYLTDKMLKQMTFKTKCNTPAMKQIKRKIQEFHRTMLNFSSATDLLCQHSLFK

As for `CCn1c(C(N)=O)cc2c1-c1ccncc1O[C@@H]2C1CCCCC1` (single isomer, unassigned) [Example 90], the GI50 (commonly the concentration giving 50% growth inhibition) in the test with SW620 [1] was 10000 to 100000 nM; in the test on Molm13, 1000 to 10000 nM; in the test on MV4:11, less than 1000 nM; with MDA-MB-231, 10000 to 100000 nM. For the same molecule, the half-inhibitory concentration (IC50) – broadly, the concentration that gives 50% inhibition – at CDK19/Cyclin C was 1.41 nM; on CDK8/Cyclin C it was 1.36 nM; against Haspin kinase it was 522 nM. Also, the EC50 at intracellular CDK8 and at intracellular HASPIN [2] was less than 500 nM each time.

As for `C[C@@H](Oc1cc(-c2cnn(C3CCNCC3)c2)cnc1N)c1c(Cl)ccc(F)c1Cl` [Crizotinib, crizotinib, reference compound], the GI50 with DU145 worked out at 20000 nM; in the test with HCT116, 5000 nM; in the test with BXPC-3, 5000 nM; in the test with SKMEL19 it was 5000 nM; with SW620 [3], 1000 nM.

Turning to `CCn1c(C(N)=O)cc2c1-c1ccncc1OC21CCN(CC(F)(F)F)CC1` [Example 79], the GI50 in the test with SW620 [1] (Homo sapiens, SW-620) is 1000 to 10000 nM; in the test with Molm13 (Homo sapiens, MOLM-13), less than 1000 nM; with MV4:11 (Homo sapiens, MV4-11), less than 1000 nM; with MDA-MB-231 (Homo sapiens, MDA-MB-231) it was 1000 to 10000 nM. For the same molecule, the IC50 at CDK19/Cyclin C is 3.14 nM; on CDK8/Cyclin C, 1.11 nM; at Haspin kinase, 38.6 nM. Besides, the EC50 at intracellular CDK8 and on intracellular HASPIN [2] was less than 500 nM in each case.

On to `CCn1c(C(N)=O)cc2c1-c1ccncc1OC21CCOCC1` [Example 82], for which the GI50 in the test with SW620 [1] (Homo sapiens, SW-620) was 1000 to 10000 nM; with Molm13 (Homo sapiens, MOLM-13) it was less than 1000 nM; with MV4:11 (Homo sapiens, MV4-11), less than 1000 nM; with MDA-MB-231 (Homo sapiens, MDA-MB-231), 1000 to 10000 nM. The IC50 on CDK19/Cyclin C is 4.58 nM; at CDK8/Cyclin C, 2.19 nM; at Haspin kinase, 12.8 nM. Also, the EC50 on intracellular CDK8 and at intracellular HASPIN [2] was less than 500 nM each time.

With `NC(=O)c1cc2c(n1CCF)-c1ccncc1OC21CCCCC1` [Example 84], the GI50 is 1000 to 10000 nM in the test on SW620 [1] (Homo sapiens, SW-620); less than 1000 nM with Molm13 (Homo sapiens, MOLM-13); less than 1000 nM in the test on MV4:11 (Homo sapiens, MV4-11); 1000 to 10000 nM in the test on MDA-MB-231 (Homo sapiens, MDA-MB-231). Besides, the IC50 came to 148 nM at CDK19/Cyclin C, 1.41 nM on CDK8/Cyclin C and 42.1 nM at Haspin kinase. Moreover, the EC50 at intracellular CDK8 and at intracellular HASPIN [2] was less than 500 nM throughout.

Turning to `CCn1c(C(N)=O)cc2c1-c1ccncc1OC21CCNCC1` [Example 91], the GI50 is 1000 to 10000 nM in the test on SW620 [1] (Homo sapiens, SW-620); less than 1000 nM with Molm13 (Homo sapiens, MOLM-13); less than 1000 nM in the test with MV4:11 (Homo sapiens, MV4-11); 1000 to 10000 nM in the test with MDA-MB-231 (Homo sapiens, MDA-MB-231). Further, the IC50 on CDK8/Cyclin C came to 301 nM; on Haspin kinase, 16.5 nM. Moreover, the EC50 on intracellular HASPIN [2] and at intracellular HASPIN [4] was less than 500 nM in each case.
